In patent publication US12324893B2, “Triptan microporation delivery system” (PassPort Technologies, Inc., priority 2019, dated 2025):

Experiment: in vivo
Conditions: rat; for AUC / Cmax: hairless; for Tmax: in vivo
Description: In this study, four groups of hairless rats were tested under the following conditions: (1) Group 1 (3 mg free base API, Suc: 0.5 mg, AA: 1 mg); (2) Group 2 (6 mg free base API, Suc: 0.5 mg, AA: 1 mg); (3) Group 3 (9 mg free base API, Suc: 0.5 mg, AA: 1 mg); and (4) Group 4 (6 mg free base API per 100 μL head of saline).
The given bioavailability of Table 18 is relative bioavailability against SC injection.

AUC (sc, 6 mg): 5380 ng·h/mL
Cmax (sc, 6 mg): 9780 ng/mL
AUC (topical or ocular, 3 mg): 2600 ng·h/mL
Cmax (topical or ocular, 3 mg): 1040 ng/mL
AUC (topical or ocular, 6 mg): 3810 ng·h/mL
Cmax (topical or ocular, 6 mg): 1400 ng/mL
AUC (topical or ocular, 9 mg): 4390 ng·h/mL
Cmax (topical or ocular, 9 mg): 1580 ng/mL
Tmax (topical or ocular, 6 mg): 1.3 h
Tmax (topical or ocular, 9 mg): 1.1 h
Structure (SMILES): CNS(=O)(=O)Cc1ccc2[nH]cc(CCN(C)C)c2c1 [Sumatriptan Succinate]
